One assay concerns the target T1, human EP4 receptor (Homo sapiens, UniProt P35408).
T1 construct: expressed in transfected cells
Description: Binding ability to human EP receptors ([3H]PGE2 displacement), EP4. The settings on record: membranes expressing human EP4; [3H]PGE2 1 nM; Cheng-Prusoff; read-out: pKi (M) EP4 (converted). The gist of the method: (§1)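 Membranes from cells stably expressing human EP2, EP3 or EP4 incubated to equilibrium with [3H]PGE2 and compound at 0.1 to 10 000 nM. Non-specific binding defined with 10 uM PGE2; bound label separated by vacuum filtration and quantified by scintillation counting.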

For the next assay, the target named is T2, human EP3 receptor (Homo sapiens, UniProt P43115).
T2 construct: expressed in transfected cells
T2 sequence (P43115 1-390): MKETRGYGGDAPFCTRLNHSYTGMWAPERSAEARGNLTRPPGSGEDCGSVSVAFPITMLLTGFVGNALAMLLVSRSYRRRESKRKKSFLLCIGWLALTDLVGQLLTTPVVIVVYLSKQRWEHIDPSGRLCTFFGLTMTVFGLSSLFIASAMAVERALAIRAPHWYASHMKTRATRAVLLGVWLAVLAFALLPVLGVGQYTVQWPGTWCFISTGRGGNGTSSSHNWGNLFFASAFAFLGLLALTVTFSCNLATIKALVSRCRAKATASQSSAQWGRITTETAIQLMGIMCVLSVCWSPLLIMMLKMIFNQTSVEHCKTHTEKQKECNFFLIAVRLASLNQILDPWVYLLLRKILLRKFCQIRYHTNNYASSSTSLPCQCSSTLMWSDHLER
Description: Binding ability to human EP receptors ([3H]PGE2 displacement), EP3. The settings on record: membranes expressing human EP3; [3H]PGE2 2.5 nM; Cheng-Prusoff; read-out: pKi (M) EP3 (converted). The gist of the method:
as §1

The target in assay [1] is T3, human EP2 prostanoid receptors (Homo sapiens, UniProt P43116).
T3 construct: expressed in transfected cells; host or cells: HEK-293
T3 sequence (P43116 whole entry): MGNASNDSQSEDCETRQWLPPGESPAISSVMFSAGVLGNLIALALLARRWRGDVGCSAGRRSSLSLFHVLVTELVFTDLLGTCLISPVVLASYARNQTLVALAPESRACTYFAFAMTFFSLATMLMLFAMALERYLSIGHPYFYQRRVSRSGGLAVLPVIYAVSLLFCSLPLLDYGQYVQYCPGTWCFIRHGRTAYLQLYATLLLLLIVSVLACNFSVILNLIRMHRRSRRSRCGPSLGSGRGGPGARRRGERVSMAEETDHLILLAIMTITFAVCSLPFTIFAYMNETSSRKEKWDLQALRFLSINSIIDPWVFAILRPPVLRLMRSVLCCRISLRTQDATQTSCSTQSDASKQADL
Put plainly: Agonist activity at recombinant human EP2 prostanoid receptors (cAMP in HEK-293 clones). As to conditions: for EC50: HEK-293 stably transfected with human EP2, cAMP accumulation, read-out: pEC50 EP2 (converted); for activity (EP2 part): functional classification at EP2. In kind it is cell-based.

In the next assay the target is T4, human EP2 receptor (Homo sapiens, UniProt P43116).
T4 construct: expressed in transfected cells
T4 sequence (P43116 whole entry): as above
Description: Binding ability to human EP receptors ([3H]PGE2 displacement), EP2. The settings on record: membranes expressing human EP2; [3H]PGE2 3 nM; Cheng-Prusoff; read-out: pKi (M) EP2 (converted). An outline of the steps:
as §1

Assay [2] concerns the target T5, human EP4 prostanoid receptors (Homo sapiens, UniProt P35408).
T5 construct: expressed in transfected cells; host or cells: HEK-293
Put plainly: Antagonist activity at EP4 prostanoid receptors (PGE2-stimulated cAMP in HEK-293 clones). In kind it is cell-based. As to conditions: for Kb: HEK-293 stably transfected with human EP4, 30 min pre-incubation before PGE2, Gaddum-Schild, slope of unity, read-out: pA2 EP4 (converted); for activity (EP4 part): functional classification at EP4, second line of the activity cell. As for the experimental part:
Culture media was Minimal essential media (MEM), supplemented with 10% foetal bovine serum, 100 U/ml penicillin, […] streptomycin, 2.5 μg/ml fungizone, 2mM glutamine. Cells were cultured to confluency (3-4 days) prior to use. Culture media was removed, and confluent cells washed three times in MEM. […] Cells were then stimulated by the addition of 25 μl of PGE2 or agonists prepared in assay buffer. In antagonist studies, cells were pre-incubated with compounds for 30 minutes prior to PGE2-mediated stimulation Plates were incubated for 15 min at 37° C., before termination of the reaction by the addition of 25 μl 1M HCl. The plate was then frozen at -20° C. overnight before determination of cAMP concentration. Stimulated cAMP levels were determined by radioligand displacement binding. In brief, plates were thawed rapidly in a waterbath, and the samples neutralised by the addition of 25 μl 1M NaOH. 30 μl was transferred to Millipore plates pre-coated with 0.5% Polyethylenimine (PEI). Samples were diluted by addition of 90 μl cAMP determination buffer (50 mM Tris, 5 mM EDTA, pH 7.0). […] 15 μl of 2 nM (final concentration) [^3H] cAMP, and 15 μl of 3'5'-cAMP protein kinase (8 μg/well final concentration) prepared in cAMP determination buffer containing 0.1% BSA, were added to each well. Plates were incubated on ice for 2 hours, before bound and free radiolabel were separated by vacuum filtration harvesting using the Millipore vacuum manifold, using ice cold water as the termination buffer. The sealing mat was removed from the Millipore plates, and the filters allowed to dry overnight. 50 μl Microscint 0 (Packard Bioscience) was added to each well, and the plate counted using the Micro-Beta Trilux topcount ^3H program. cAMP accumulation was determined from the standard curve, and values calculated in pmoles cAMP/well. Antagonists affinities (pA2 values) were determined assuming a slope of unity and the […]-Schild equation, where pA2=log [concentration ratio-1]-log[antagonist].

T5 sequence (P35408 whole entry): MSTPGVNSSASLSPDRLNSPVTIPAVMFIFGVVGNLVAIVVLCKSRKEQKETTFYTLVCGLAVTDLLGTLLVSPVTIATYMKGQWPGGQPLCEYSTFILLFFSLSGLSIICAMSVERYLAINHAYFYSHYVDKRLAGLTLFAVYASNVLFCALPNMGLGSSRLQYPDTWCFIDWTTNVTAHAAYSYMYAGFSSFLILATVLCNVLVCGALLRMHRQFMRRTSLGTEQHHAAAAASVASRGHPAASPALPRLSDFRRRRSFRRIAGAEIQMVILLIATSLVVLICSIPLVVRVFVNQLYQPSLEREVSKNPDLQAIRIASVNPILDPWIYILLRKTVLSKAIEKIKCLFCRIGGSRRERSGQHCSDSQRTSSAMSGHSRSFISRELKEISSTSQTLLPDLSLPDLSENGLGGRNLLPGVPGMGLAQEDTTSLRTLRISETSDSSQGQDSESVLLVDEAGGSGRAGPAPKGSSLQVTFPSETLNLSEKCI
T1 sequence (P35408 whole entry): as above

For the molecule `O=C(O)Cc1ccc(NC(=O)c2ccc(-c3ccccc3)o2)cc1` [Compound 2, {4-[(5-Phenyl-furan-2-carbonyl)-amino]-phenyl}-acetic acid], on human EP4 receptor, the Ki was less than 1e-05 M. Further, the Ki at human EP3 receptor was greater than 1e-05 M. Besides, in assay [1], the EC50 was less than 10000 nM and the “activity (EP2 part)” value is listed as “EP2 agonist/”. On human EP2 receptor, the Ki is less than 1e-05 M. Besides, in assay [2], the Kb is less than 10 µM and the “activity (EP4 part)” value is “EP4 antagonist”.

Take `O=C(O)c1ccc(CNC(=O)c2ccc(-c3ccccc3)o2)cc1` [Compound 4, 4-{[(5-Phenyl-furan-2-carbonyl)-amino]-methyl}-benzoic acid]: the Ki is less than 1e-05 M at human EP4 receptor, greater than 1e-05 M on human EP3 receptor and less than 1e-05 M on human EP2 receptor. Moreover, the EC50 in assay [1] is less than 10000 nM. The “activity (EP2 part)” value in assay [1] was “EP2 agonist/”. Besides, the Kb in assay [2] was less than 10 µM. The “activity (EP4 part)” value in assay [2] was “EP4 antagonist”.

As for `O=C(O)/C=C/c1cccc(NC(=O)c2cccc(-c3ccc(F)cc3)n2)c1` [Compound 155, 3-(3-{[6-(4-Fluoro-phenyl)-pyridine-2-carbonyl]-amino}-phenyl)-acrylic acid], the Ki at human EP4 receptor is greater than 1e-05 M; on human EP3 receptor, greater than 1e-05 M; on human EP2 receptor it was less than 1e-07 M. In assay [1], the EC50 was less than 100 nM. For the same molecule, the “activity (EP2 part)” value in assay [1] is “EP2 Agonist”.

For `O=C(O)COc1cccc(NC(=O)c2ccc(-c3ccc(Cl)cc3)o2)c1` [Compound 156, (3-{[5-(4-Chloro-phenyl)-furan-2-carbonyl]-amino}-phenoxy)-acetic acid], the Ki at human EP4 receptor was greater than 1e-05 M; on human EP3 receptor it was greater than 1e-05 M; at human EP2 receptor, less than 1e-07 M. Further, the EC50 in assay [1] was less than 100 nM. Moreover, the “activity (EP2 part)” value in assay [1] is “EP2 Agonist”.

Regarding `O=C(O)COc1cccc(NC(=O)c2ccc(-c3ccc(F)cc3)o2)c1` [Compound 157, (3-{[5-(4-Fluoro-phenyl)-furan-2-carbonyl]-amino}-phenoxy)-acetic acid], the Ki on human EP4 receptor is greater than 1e-05 M; at human EP3 receptor it was greater than 1e-05 M; on human EP2 receptor, less than 1e-07 M. Moreover, the EC50 in assay [1] was less than 100 nM. Besides, the “activity (EP2 part)” value in assay [1] is listed as “EP2 Agonist”.

For `O=C(O)COc1cccc(NC(=O)c2cccc(-c3ccc(F)cc3)n2)c1` [Compound 158, (3-{[6-(4-Fluoro-phenyl)-pyridine-2-carbonyl]-amino}-phenoxy)-acetic acid], the Ki is less than 1e-06 M on human EP4 receptor, greater than 1e-05 M on human EP3 receptor and less than 1e-07 M on human EP2 receptor. The EC50 in assay [1] was less than 100 nM. Further, in assay [1], the “activity (EP2 part)” value was “EP2 Agonist”.

As to `O=C(O)CCc1cccc(NC(=O)c2cccc(-c3ccc(F)cc3)n2)c1` [Compound 159, 3-(3-{[6-(4-Fluoro-phenyl)-pyridine-2-carbonyl]amino}-phenyl)-propionic acid], the Ki at human EP4 receptor is greater than 1e-05 M; at human EP3 receptor, greater than 1e-05 M; on human EP2 receptor it was less than 1e-07 M. Besides, the EC50 in assay [1] is less than 100 nM. Besides, the “activity (EP2 part)” value in assay [1] is listed as “EP2 Agonist”.

As to `O=C(O)COc1cccc(NC(=O)c2ccc(-c3ccccc3)o2)c1` [Compound 160, {3-[(5-Phenyl-furan-2-carbonyl)-amino]-phenoxy}-acetic acid], the Ki on human EP4 receptor was greater than 1e-05 M; at human EP3 receptor, greater than 1e-05 M; on human EP2 receptor, less than 1e-07 M. For the same molecule, the EC50 in assay [1] is less than 100 nM. Moreover, in assay [1], the “activity (EP2 part)” value is listed as “EP2 Agonist”.

With `O=C(O)CCc1cccc(NC(=O)c2cccc(-c3cccc(F)c3)n2)c1` [Compound 162, 3-(3-{[6-(3-Fluoro-phenyl)-pyridine-2-carbonyl]-amino}-phenyl)-propionic acid], the figures for the Ki on human EP4 receptor, on human EP3 receptor and on human EP2 receptor were greater than 1e-05 M, greater than 1e-05 M and less than 1e-07 M, respectively. Also, in assay [1], the EC50 is less than 100 nM. Further, in assay [1], the “activity (EP2 part)” value is listed as “EP2 Agonist”.

Take `O=C(O)CCc1cccc(NC(=O)c2ccc(-c3cccc(F)c3)o2)c1` [Compound 163, 3-(3-{[5-(3-Fluoro-phenyl)-furan-2-carbonyl]-amino}-phenyl)-propionic acid]: the Ki on human EP4 receptor is greater than 1e-05 M; on human EP3 receptor, greater than 1e-05 M; on human EP2 receptor, less than 1e-07 M. Also, in assay [1], the EC50 was less than 100 nM. For the same molecule, in assay [1], the “activity (EP2 part)” value is listed as “EP2 Agonist”.

Regarding `O=C(O)CCc1cccc(NC(=O)c2cccc(-c3ccccc3)n2)c1` [Compound 164, 3-{3-[(6-Phenyl-pyridine-2-carbonyl)-amino]-phenyl}-propionic acid], the Ki is greater than 1e-05 M on human EP4 receptor, greater than 1e-05 M at human EP3 receptor and less than 1e-06 M at human EP2 receptor. Besides, the EC50 in assay [1] was less than 100 nM. In addition, the “activity (EP2 part)” value in assay [1] is “EP2 Agonist”.

For `O=C(O)COc1cccc(NC(=O)c2cc(-c3ccccc3)ccc2F)c1` [Compound 165], the Ki on human EP4 receptor was greater than 1e-05 M; on human EP3 receptor it was greater than 1e-05 M; at human EP2 receptor, less than 1e-07 M. In assay [1], the EC50 was less than 100 nM. The “activity (EP2 part)” value in assay [1] was “EP2 Agonist”.

`O=C(O)COc1cccc(NC(=O)c2ccc(-c3cccc(F)c3)o2)c1` [Compound 168, (3-{[5-(3-Fluoro-phenyl)-furan-2-carbonyl]-amino}-phenoxy)-acetic acid]: the Ki was greater than 1e-05 M on human EP4 receptor, greater than 1e-05 M at human EP3 receptor and less than 1e-07 M at human EP2 receptor. In addition, the EC50 in assay [1] was less than 100 nM. Also, the “activity (EP2 part)” value in assay [1] is reported as “EP2 Agonist”.

Turning to `O=C(O)COc1cccc(NC(=O)c2cc(-c3cccc(F)c3)ccc2F)c1` [Compound 169, {3-[(4,3′-Difluoro-biphenyl-3-carbonyl)-amino]-phenoxy}-acetic acid], the Ki on human EP4 receptor was greater than 1e-05 M; at human EP3 receptor, greater than 1e-05 M; at human EP2 receptor it was less than 1e-07 M. In addition, in assay [1], the EC50 was less than 100 nM. In addition, the “activity (EP2 part)” value in assay [1] is recorded as “EP2 Agonist”.

Take `O=C(O)COc1cccc(NC(=O)c2cccc(-c3cccc(F)c3)n2)c1` [Compound 170, (3-{[6-(3-Fluoro-phenyl)-pyridine-2-carbonyl]-amino}-phenoxy)-acetic acid]: the Ki at human EP4 receptor is less than 1e-06 M; at human EP3 receptor it was greater than 1e-05 M; at human EP2 receptor, less than 1e-07 M. For the same molecule, the EC50 in assay [1] was less than 100 nM. For the same molecule, the “activity (EP2 part)” value in assay [1] is listed as “EP2 Agonist”.

With `O=C(O)COc1cccc(NC(=O)c2cc(-c3ccc(F)cc3)ccc2F)c1` [Compound 171, {3-[(4,4′-Difluoro-biphenyl-3-carbonyl)-amino]-phenoxy}-acetic acid], the Ki at human EP4 receptor was greater than 1e-05 M; at human EP3 receptor, greater than 1e-05 M; on human EP2 receptor it was less than 1e-07 M. For the same molecule, in assay [1], the EC50 is less than 100 nM. Further, the “activity (EP2 part)” value in assay [1] was “EP2 Agonist”.

`O=C(Nc1cccc(OCc2nnn[nH]2)c1)c1ccc(-c2ccccc2)o1` [Compound 173, 5-Phenyl-furan-2-carboxylic acid [3-(1H-tetrazol-5-ylmethoxy)-phenyl]-amide]: the figures for the Ki at human EP4 receptor, on human EP3 receptor and at human EP2 receptor were greater than 1e-05 M, greater than 1e-05 M and less than 1e-06 M, respectively. For the same molecule, the EC50 in assay [1] is less than 100 nM. Further, the “activity (EP2 part)” value in assay [1] is reported as “EP2 Agonist”.

As to `O=C(Nc1cccc(-c2nnn[nH]2)c1)c1ccc(-c2ccccc2)o1` [Compound 177, 5-Phenyl-furan-2-carboxylic acid [3-(1H-tetrazol-5-yl)-phenyl]-amide], the Ki on human EP4 receptor is greater than 1e-05 M; on human EP3 receptor it was greater than 1e-05 M; on human EP2 receptor it was less than 1e-06 M. Besides, the EC50 in assay [1] is less than 1000 nM. For the same molecule, the “activity (EP2 part)” value in assay [1] is “EP2 Agonist”.

These data come from US7326732B2, “EP2 receptor agonists” (Pharmagene Laboratories Limited, priority 2004, dated 2008).
